According to paper PMC9267128, “New 2-[(4-Amino-6-N-substituted-1,3,5-triazin-2-yl)methylthio]-N-(imidazolidin-2-ylidene)-4-chloro-5-methylbenzenesulfonamide Derivatives, Design, Synthesis and Anticancer Evaluation” (International Journal of Molecular Sciences, 2022):

Tests used:
MCF-7 (breast cancer) = experiment: MTT cell viability assay, MCF-7; type: cell-based, human; settings: for IC50: Homo sapiens, MCF7, 72 h, MTT assay, 72 h of incubation
Experimental: (§1) Compounds 20–162 were evaluated in vitro for their effects on the viability of three cancer cell lines: HCT-116 (colon cancer), MCF-7 (breast cancer) and HeLa (cervical cancer), as well as the non-cancerous keratinocyte cell line (HaCaT). […] Analysis was performed using an MTT assay after 72 h of incubation.
(§2) All chemicals, if not stated otherwise, were obtained from Sigma–Aldrich (St. Louis, MO, USA). The HCT-116 cell line was purchased from ATCC (ATCC-No: CCL-247), while the MCF-7, HeLa and HaCaT cell lines were purchased from Cell Lines Services (Eppelheim, Germany). Cells were cultured in Dulbecco’s modified Eagle’s medium (DMEM) supplemented with 10% fetal bovine serum, 2 mM glutamine, 100 units/mL penicillin and 100 µg/mL streptomycin. Cultures were maintained in a humidified atmosphere with 5% carbon dioxide at 37 °C in an incubator (Heraceus, HeraCell).
(§3) Cell viability was examined using the MTT [3-(4,5-dimethylthiazol-2-yl)-2,5-diphenyltetrazolium bromide] assay. Cells were seeded in 96-well plates at a density of 3 × 10^3 cells/well and treated for 72 h with the tested compounds in the concentration range of 1–100 µM. Then, MTT (0.5 mg/mL) was added to the medium and cells were further incubated for 2 h at 37 °C. In the next stage, cells were lysed with DMSO and the absorbance of the formazan solution was measured at 550 nm with a plate reader (1420 multilabel counter, Victor, Jügesheim, Germany). The experiment was performed in triplicate. Values are expressed as the mean ± SD of at least three independent experiments. Cisplatin was used as a positive control.

HeLa (cervical cancer) = experiment: MTT cell viability assay, HeLa; type: cell-based, human; settings: for IC50: Homo sapiens, HeLa, MTT assay, 72 h of incubation
Experimental: (§4) Analysis was performed using an MTT assay after 72 h of incubation.
as §2
as §3, with “experiments.” for “experiments. Cisplatin was used as a positive control.”

HCT-116 (colon cancer) = experiment: MTT cell viability assay, HCT-116; type: cell-based, human; settings: for IC50: Homo sapiens, HCT-116, 72 h, MTT assay, 72 h of incubation
Experimental: as §4, §2
as §3, with “experiments.” for “experiments. Cisplatin was used as a positive control.”

[1] = test system: HaCaT (human keratinocyte cell line); experiment: MTT cell viability assay, non-cancerous HaCaT; type: cell-based; settings: Homo sapiens, HaCaT, 72 h, 72 h of incubation, non-cancerous keratinocytes
Experimental: as §1, §2, §3

| Compound | IC50 (MCF-7 (breast cancer)) [µM] | IC50 (HeLa (cervical cancer)) [µM] | IC50 (HCT-116 (colon cancer)) [µM] | IC50 [1] [µM] | Selectivity Index (SI) MCF-7 (MCF-7 (breast cancer); IC50 value toward HaCaT cells/IC50 value toward MCF-7) | Selectivity Index (SI) HeLa (HeLa (cervical cancer); IC50 value toward HaCaT cells/IC50 value toward HeLa) | Selectivity Index (SI) HCT-116 (HCT-116 (colon cancer); IC50 value toward HaCaT cells/IC50 value toward HCT-116) |
| --- | --- | --- | --- | --- | --- | --- | --- |
| Cc1cc(S(=O)(=O)N=C2NCCN2)c(SCc2nc(N)nc(N3CCN(c4ccc(F)c(Cl)c4)CC3)n2)cc1Cl [Compound 39] | 17 ± 1 | 18 ± 1 | 15 ± 1 | 37 ± 2 | – | – | – |
| COc1ccc(N2CCN(c3nc(N)nc(CSc4cc(Cl)c(C)cc4S(=O)(=O)N=C4NCCN4)n3)CC2)cc1 [Compound 40] | 28 ± 2 | 23 ± 1 | 21 ± 0.5 | 45 ± 3 | – | – | – |
| COc1ccccc1N1CCN(c2nc(N)nc(CSc3cc(Cl)c(C)cc3S(=O)(=O)N=C3NCCN3)n2)CC1 [Compound 41] | 46 ± 1 | 39 ± 2 | 21 ± 1 | 51 ± 3 | – | – | – |
| Cc1cc(S(=O)(=O)N=C2NCCN2)c(SCc2nc(N)nc(N3CCN(Cc4ccccc4)CC3)n2)cc1Cl [Compound 42] | 31 ± 2 | 30 ± 1.5 | 31 ± 1 | 61 ± 4 | – | – | – |
| Cc1cc(S(=O)(=O)N=C2NCCN2)c(SCc2nc(N)nc(N3CCC(Cc4ccccc4)CC3)n2)cc1Cl [Compound 43] | 22 ± 0.5 | 19 ± 0.5 | 17 ± 1 | 43 ± 2 | – | – | – |
| Cc1cc(S(=O)(=O)N=C2NCCN2)c(SCc2nc(N)nc(N3CC=C(c4ccc(F)cc4)CC3)n2)cc1Cl [Compound 44] | 16 ± 0.5 | 14 ± 0.5 | 14 ± 0.5 | 28 ± 1 | – | – | – |
| Cc1cc(S(=O)(=O)N=C2NCCN2Cc2ccccc2)c(SCc2nc(N)nc(N(C)C)n2)cc1Cl [Compound 45] | 22 ± 0.2 | 34 ± 1 | 19 ± 0.4 | 43 ± 2 | – | – | – |
| Cc1cc(S(=O)(=O)N=C2NCCN2Cc2ccccc2)c(SCc2nc(N)nc(N3CCOCC3)n2)cc1Cl [Compound 46] | 23 ± 0.7 | 37 ± 0.4 | 21 ± 0.2 | – | – | – | – |
| CC1=NN(c2nc(N)nc(CSc3cc(Cl)c(C)cc3S(=O)(=O)N=C3NCCN3Cc3ccccc3)n2)C(C)(C)C1 [Compound 47] | 20 ± 0.4 | 34 ± 0.3 | 19 ± 0.2 | 45 ± 2 | – | – | – |
| Cc1cc(S(=O)(=O)N=C2NCCN2Cc2ccccc2)c(SCc2nc(N)nc(N3CCCc4ccccc43)n2)cc1Cl [Compound 49] | 17 ± 0.3 | 24 ± 0.5 | 14 ± 0.1 | 38 ± 1 | – | – | – |
| Cc1cc(S(=O)(=O)N=C2NCCN2Cc2ccccc2)c(SCc2nc(N)nc(Nc3ccccc3)n2)cc1Cl [Compound 50] | 43 ± 1 | 35 ± 2 | 18 ± 0.2 | 51 ± 2 | – | – | – |
| Cc1cc(S(=O)(=O)N=C2NCCN2Cc2ccccc2)c(SCc2nc(N)nc(Nc3ccc(C(F)(F)F)cc3)n2)cc1Cl [Compound 51] | 10 ± 0.5 | 15 ± 1 | 19 ± 0.6 | 220 ± 12 | – | – | – |
| COc1ccc(Nc2nc(N)nc(CSc3cc(Cl)c(C)cc3S(=O)(=O)N=C3NCCN3Cc3ccccc3)n2)cc1 [Compound 52] | 64 ± 2 | 61 ± 2 | 37 ± 0.5 | 92 ± 3 | – | – | – |
| Cc1cc(S(=O)(=O)N=C2NCCN2Cc2ccccc2)c(SCc2nc(N)nc(NCc3ccccc3)n2)cc1Cl [Compound 53] | 11 ± 0.5 | 85 ± 2 | 10 ± 0.5 | 81 ± 4 | – | – | – |
| Cc1cc(S(=O)(=O)N=C2NCCN2Cc2ccccc2)c(SCc2nc(N)nc(N(C)c3ccccc3)n2)cc1Cl [Compound 54] | 12 ± 0.1 | 16 ± 0.2 | 11 ± 0.1 | 28 ± 1 | – | – | – |
| Cc1cc(S(=O)(=O)N=C2NCCN2Cc2ccccc2)c(SCc2nc(N)nc(N(C)c3ccc(Cl)cc3)n2)cc1Cl [Compound 55] | 10 ± 0.2 | 13 ± 0.1 | 7 ± 0.1 | 39 ± 2 | 3.9 | 3.0 | 5.5 |
| Cc1cc(S(=O)(=O)N=C2NCCN2Cc2ccccc2)c(SCc2nc(N)nc(N3CCN(C)CC3)n2)cc1Cl [Compound 56] | 54 ± 1 | 37 ± 1 | 22 ± 1 | 58 ± 2 | – | – | – |
| Cc1cc(S(=O)(=O)N=C2NCCN2Cc2cccc3ccccc23)c(SCc2nc(N)nc(N3CCN(c4ccc(Cl)cc4)CC3)n2)cc1Cl [Compound 79] | 98 ± 5 | 88 ± 3 | 94 ± 2 | – | – | – | – |
| Cc1cc(S(=O)(=O)N=C2NCCN2Cc2cccc3ccccc23)c(SCc2nc(N)nc(N3CCN(c4ccc(Cl)c(Cl)c4)CC3)n2)cc1Cl [Compound 80] | 89 ± 4 | 98 ± 5 | 79 ± 2 | – | – | – | – |
